Measured values reported in patent publication US20180119123A1, “CRISPR/CAS-RELATED METHODS AND COMPOSITIONS FOR TREATING HIV INFECTION AND AIDS” (EDITAS MEDICINE, INC., priority 2015, published 2018).
Entries after “also recorded” stand apart in the source; their conditions may differ.

Legend:
[1] = test system: human mobilized peripheral blood CD34^+ HSCs; assay: Fold change in CD34+ cell number (trypan blue count) 96 hours after Nucleofection; type: cell-based
Description: Human CD34^+ HSCs cells from mobilized peripheral blood (AllCells) were thawed into StemSpan Serum-Free Expansion Medium (SFEM™, StemCell Technologies) containing 100 ng/mL each of the following cytokines: human stem cell factor (SCF), thrombopoietin (TPO), and flt-3 ligand (FL) (all from Peprotech). Cells were grown for 3 days in a humidified incubator and 5% CO2 20% O2. […] The published use of UM171 involved prolonged exposure of HSCs to the small molecule for ex vivo expansion of HSCs. In the current experiment, HSCs were exposed to UM171 for 2 hours before and 24 hours after delivery of Cas9 and gRNA plasmid DNA. This UM171 treatment protocol was based on pilot studies performed by the inventors that indicated acute pre-treatment with UM171 before lentivirus vector mediated gene delivery improved HSC viability compared to HSCs treated with vehicle (dimethylsulfoxide, DMSO, Sigma) alone. […] At 96 hours after Nucleofection™, CD34^+ cells were counted for by trypan blue exclusion and divided into 3 portions for the following analyses: a) flow cytometry analysis for assessment of viability by co-staining with 7-Aminoactinomycin-D (7-AAD) and allophycocyanin (APC)-conjugated Annexin-V antibody (ebioscience); b) flow cytometry analysis for maintenance of HSC phenotype (after co-staining with phycoerythrin (PE)-conjugated anti-human CD34 antibody and fluorescein isothicyanate (FITC)-conjugated anti-human CD90, both from BD Bioscience; c) hematopoietic colony forming cell (CFC) analysis by plating 1500 cells in semi-solid methylcellulose based Methocult medium (StemCell Technologies) that supports differentiation of erythroid and myeloid blood cell colonies from HSCs and serves as a surrogate assay to evaluate HSC multipotency and differentiation potential ex vivo; d) genomic DNA analysis for detection of editing at the CCR5 locus. […]

CD34^+ HSCs = assay: Hematopoietic colony forming cell (CFC) assay in Methocult medium; type: cell-based, human; details: Nucleofection with wild-type Cas9 and CCR5-U43 gRNA plasmid DNA + UM171; two weeks
Description: Human CD34^+ HSCs cells from mobilized peripheral blood (AllCells) were thawed into StemSpan Serum-Free Expansion Medium (SFEM™, StemCell Technologies) containing 100 ng/mL each of the following cytokines: human stem cell factor (SCF), thrombopoietin (TPO), and flt-3 ligand (FL) (all from Peprotech). Cells were grown for 3 days in a humidified incubator and 5% CO2 20% O2. […] The published use of UM171 involved prolonged exposure of HSCs to the small molecule for ex vivo expansion of HSCs. In the current experiment, HSCs were exposed to UM171 for 2 hours before and 24 hours after delivery of Cas9 and gRNA plasmid DNA. This UM171 treatment protocol was based on pilot studies performed by the inventors that indicated acute pre-treatment with UM171 before lentivirus vector mediated gene delivery improved HSC viability compared to HSCs treated with vehicle (dimethylsulfoxide, DMSO, Sigma) alone. After the 2-hour pretreatment with UM171, 1 million […] HSCs were Nucleofected™ with the Amaxa™ 4D Nucleofector™ device (Lonza), Program EO100 using components of the P3 Primary Cell 4D-Nucleofector Kit™ (Lonza) according to the manufacturer's instructions. Briefly, one million cells were suspended in Nucleofector™ solution and the following amounts of plasmid DNA were added to the cell suspension: 1250 ng plasmid expressing CCR5 gRNA (CCR5-U43) from the human U6 promoter and 3750 ng plasmid expressing wild-type S. pyogenes Cas 9 transcriptionally regulated by the CMV promoter. After Nucleofection™, cells were plated into Stemspan-SFEM™ supplemented with SCF, TPO, FL and 40 nM UM171. After overnight incubation, HSCs were plated in Stemspan-SFEM™ plus cytokines without UM171. At 96 hours after Nucleofection™, CD34^+ cells were counted for by trypan blue exclusion and divided into 3 portions for the following analyses: a) flow cytometry analysis for assessment of viability by co-staining with 7-Aminoactinomycin-D (7-AAD) and allophycocyanin (APC)-conjugated Annexin-V antibody (ebioscience); b) flow cytometry analysis for maintenance of HSC phenotype (after co-staining with phycoerythrin (PE)-conjugated anti-human CD34 antibody and fluorescein isothicyanate (FITC)-conjugated anti-human CD90, both from BD Bioscience; c) hematopoietic colony forming cell (CFC) analysis by plating 1500 cells in semi-solid methylcellulose based Methocult medium (StemCell Technologies) that supports differentiation of erythroid and myeloid blood cell colonies from HSCs and serves as a surrogate assay to evaluate HSC multipotency and differentiation potential ex vivo; d) genomic DNA analysis for detection of editing at the CCR5 locus. Genomic DNA was extracted from HSCs 96 hours after Nucleofection™, and CCR5 locus-specific PCR reactions were performed.
To evaluate maintenance of HSC potency and differentiation potential, two weeks after plating CD34^+ HSCs in CFC assays, hematopoietic activity was quantified based on scoring the HSC progeny by enumerating the total number of hematopoietic colony forming units (CFU) and the frequencies of specific blood cell phenotypes, including: mixed myeloid/erythroid (Granulocyte-erythroid-monocyte macrophage, CFU-GEMM), myeloid (CFU-macrophage (M), granulocyte-macrophage (CFU-GM)) and erythroid (CFU-E) colonies. CD34^+ HSCs that were Nucleofected™ after UM171 pre-treatment maintained CFC potential compared to un-Nucleofected™ HSCs (Table 12). In contrast, CD34^+ HSCs that were Nucleofected™ without UM171 pre-treatment had reduced CFC potential (lower total CFC counts and reduced numbers of mixed-phenotype colonies (CFU-GEMM) and erythroid colonies (CFU-E)) in comparison to un-Nucleofected™ CD34^+ HSCs.
Human CD34^+ HSCs cells from mobilized peripheral blood (AllCells) were thawed into StemSpan Serum-Free Expansion Medium (SFEM, StemCell Technologies) containing 100 ng/mL each of the following cytokines: human stem cell factor (SCF), thrombopoietin (TPO), and flt-3 ligand (FL) (all from Peprotech). […]

## Cn1nnc(-c2ccc3c(c2)[nH]c2nc(Cc4ccccc4)nc(N[C@H]4CC[C@H](N)CC4)c23)n1 [UM171, (1r,4r)-N1-(2-benzyl-7-(2-methyl-2H-tetrazol-5-yl)-9H-pyrimido[4,5-b]indol-4-yl)cyclohexane-1,4-diamine]
[1]; 40 nM UM171, S. aureus or S. pyogenes Cas9 and CXCR4 gRNA plasmids
  Fold expansion / proliferation potential of Nucleofected CD34+ cells with UM171 pre-treatment versus without: higher fold-expansion; also recorded: maintain proliferation potential
[1]; Nucleofection with wild type Cas9 and CCR5-U43 gRNA plasmid DNA + UM171 treatment (40 nM, 2 hours before and 24 hours after)
  Fold change in cell number of CD34^+ cells (96 hours vs. time 0 cell number): 1.5
CD34^+ HSCs
  Number of colony forming units: E: 92 colony forming units per 1500 CD34^+ HSCs plated
  Number of colony forming units: G: 40 colony forming units per 1500 CD34^+ HSCs plated
  Number of colony forming units: GEMM: 20 colony forming units per 1500 CD34^+ HSCs plated
  Number of colony forming units: GM: 32 colony forming units per 1500 CD34^+ HSCs plated
  Number of colony forming units: M: 64 colony forming units per 1500 CD34^+ HSCs plated
  Number of colony forming units: Total: 228 colony forming units per 1500 CD34^+ HSCs plated
